According to ChEMBL document CHEMBL5032500, “Adenosine A2AR/A1R Antagonists Enabling Additional H3R Antagonism for the Treatment of Parkinson's Disease” (J Med Chem, 2021):
The source made the active and inactive calls. The rule behind the calls is not given here.

Columns and labels:
[1] = species on record: Homo sapiens; experiment: Selectivity index, ratio of Ki for human recombinant adenosine A1 receptor to Ki for human recombinant histamine H3 receptor
[2] = target: T1, Adenosine receptor A2a (Homo sapiens, UniProt P29274); experiment: Displacement of [3H]MSX-2 from human recombinant adenosine A2A receptor expressed in CHO cells by liquid scintillation counting analysis; assay type: cell-based
T1 sequence (P29274 whole entry): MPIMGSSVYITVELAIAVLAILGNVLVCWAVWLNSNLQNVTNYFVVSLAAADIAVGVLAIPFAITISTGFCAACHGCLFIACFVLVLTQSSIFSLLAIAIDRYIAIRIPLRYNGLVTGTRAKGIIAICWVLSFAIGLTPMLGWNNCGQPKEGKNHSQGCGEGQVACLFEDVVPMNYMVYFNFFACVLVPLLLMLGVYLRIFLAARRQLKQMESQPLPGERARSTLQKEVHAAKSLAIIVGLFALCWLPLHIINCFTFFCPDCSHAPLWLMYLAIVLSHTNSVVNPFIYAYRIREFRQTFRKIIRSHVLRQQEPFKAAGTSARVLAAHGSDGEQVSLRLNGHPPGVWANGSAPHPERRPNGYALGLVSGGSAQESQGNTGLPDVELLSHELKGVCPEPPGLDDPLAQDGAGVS

[3] = species on record: Homo sapiens; experiment: Selectivity index, ratio of Ki for human recombinant dopamine D3 receptor to Ki for human recombinant adenosine A3 receptor
[4] = tested on: Mus musculus; experiment: Induction of wake promoting activity in C57BL/6 mouse assessed as reduction in slow wave sleep at 2 mg/kg, po by EEG analysis; assay type: functional, organism-based
[5] = target: Histamine H4 receptor (Homo sapiens, UniProt Q9H3N8); experiment: Displacement of [3H]histamine from human recombinant histamine H4 receptor expressed in sf9 cells by liquid scintillation counting analysis
[6] = species on record: Homo sapiens; experiment: Selectivity index, ratio of Ki for human recombinant dopamine D2S receptor to Ki for human recombinant histamine H3 receptor
[7] = species on record: Homo sapiens; experiment: Selectivity index, ratio of Ki for human recombinant adenosine A2A receptor to Ki for human recombinant adenosine A1 receptor
[8] = target: T2, Adenosine receptor A1 (Homo sapiens, UniProt P30542); experiment: Displacement of [3H]CCPA from human recombinant adenosine A1 receptor expressed in CHO cells by liquid scintillation counting analysis; assay type: cell-based
T2 sequence (P30542 whole entry): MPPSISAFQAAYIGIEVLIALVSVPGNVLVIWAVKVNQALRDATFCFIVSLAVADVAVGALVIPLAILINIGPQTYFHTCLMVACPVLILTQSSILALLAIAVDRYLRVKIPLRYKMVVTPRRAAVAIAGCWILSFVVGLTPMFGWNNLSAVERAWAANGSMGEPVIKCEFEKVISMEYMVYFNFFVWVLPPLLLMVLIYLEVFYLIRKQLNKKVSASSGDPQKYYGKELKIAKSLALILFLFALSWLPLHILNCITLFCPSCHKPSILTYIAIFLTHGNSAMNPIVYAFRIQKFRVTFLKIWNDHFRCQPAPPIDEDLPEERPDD

[9] = target: Adenosine receptors; A1 & A3 (Homo sapiens) (UniProt P30542+P0DMS8); experiment: Selectivity index, ratio of Ki for human recombinant adenosine A3 receptor to Ki for human recombinant adenosine A1 receptor; assay type: protein assay
[10] = target: MAO-A (Homo sapiens, UniProt P21397); experiment: Inhibition of human recombinant MAO-A using kynuramine as substrate at 10 uM measured for 30 mins by spectrophotometric analysis; details: probe kynuramine
MAO-A, sequence (P21397 whole entry): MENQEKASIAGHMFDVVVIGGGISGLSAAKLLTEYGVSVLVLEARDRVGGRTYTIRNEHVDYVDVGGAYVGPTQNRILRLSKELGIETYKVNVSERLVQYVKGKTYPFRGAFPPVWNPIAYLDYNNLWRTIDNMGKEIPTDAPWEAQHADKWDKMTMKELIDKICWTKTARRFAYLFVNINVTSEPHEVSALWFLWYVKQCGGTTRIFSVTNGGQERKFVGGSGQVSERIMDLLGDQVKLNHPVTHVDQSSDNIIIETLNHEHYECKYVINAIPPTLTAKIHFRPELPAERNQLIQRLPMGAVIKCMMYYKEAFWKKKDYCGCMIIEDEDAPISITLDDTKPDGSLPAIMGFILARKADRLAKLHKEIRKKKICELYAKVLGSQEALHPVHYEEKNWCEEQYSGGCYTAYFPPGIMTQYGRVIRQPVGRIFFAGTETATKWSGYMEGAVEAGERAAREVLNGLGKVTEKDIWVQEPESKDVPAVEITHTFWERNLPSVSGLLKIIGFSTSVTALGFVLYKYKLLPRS

[11] = target: D(2) dopamine receptor (Homo sapiens, UniProt P14416); experiment: Displacement of [3H]spiperone from human recombinant dopamine D2S receptor expressed in CHO cells by liquid scintillation counting analysis; assay type: cell-based
D(2) dopamine receptor, sequence (P14416 whole entry): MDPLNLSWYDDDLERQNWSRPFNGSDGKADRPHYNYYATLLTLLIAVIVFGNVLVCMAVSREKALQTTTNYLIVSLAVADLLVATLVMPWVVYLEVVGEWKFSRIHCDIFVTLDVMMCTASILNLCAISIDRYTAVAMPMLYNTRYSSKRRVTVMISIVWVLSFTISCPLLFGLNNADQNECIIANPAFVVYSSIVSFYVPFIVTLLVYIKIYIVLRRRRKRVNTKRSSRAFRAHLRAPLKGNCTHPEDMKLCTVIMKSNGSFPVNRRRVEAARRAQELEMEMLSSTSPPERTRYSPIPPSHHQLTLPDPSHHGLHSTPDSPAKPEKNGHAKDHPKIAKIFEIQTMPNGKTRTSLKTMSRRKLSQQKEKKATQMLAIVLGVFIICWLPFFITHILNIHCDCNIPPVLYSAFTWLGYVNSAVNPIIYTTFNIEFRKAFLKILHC

[12] = species on record: Homo sapiens; experiment: Selectivity index, ratio of Ki for human recombinant dopamine D2S receptor to Ki for human recombinant adenosine A3 receptor
[13] = species on record: Homo sapiens; experiment: Selectivity index, ratio of Ki for human recombinant dopamine D2S receptor to Ki for human recombinant adenosine A2B receptor
[14] = Toxicity in C57BL/6 mouse assessed as effect on paradoxical sleep at 2 mg/kg, po by EEG analysis; assay type: organism-based; details: in vivo
[15] = tested on: Rattus norvegicus; experiment: Antiparkinson's activity in ip dosed L-DOPA induced dyskinesia Sprague-Dawley rat model assessed as reduction in dyskinesia by measuring abnormal involuntary movement upto 21 days; assay type: functional, organism-based; details: dose 0.1-1 mg/kg, time day <=21
[16] = species on record: Homo sapiens; experiment: Selectivity index, ratio of Ki for human recombinant dopamine D2S receptor to Ki for human recombinant adenosine A1 receptor
[17] = target: MAO-B (Homo sapiens, UniProt P27338); experiment: Inhibition of human recombinant MAO-B using kynuramine as substrate at 10 uM measured for 30 mins by spectrophotometric analysis; details: probe kynuramine
MAO-B, sequence (P27338 whole entry): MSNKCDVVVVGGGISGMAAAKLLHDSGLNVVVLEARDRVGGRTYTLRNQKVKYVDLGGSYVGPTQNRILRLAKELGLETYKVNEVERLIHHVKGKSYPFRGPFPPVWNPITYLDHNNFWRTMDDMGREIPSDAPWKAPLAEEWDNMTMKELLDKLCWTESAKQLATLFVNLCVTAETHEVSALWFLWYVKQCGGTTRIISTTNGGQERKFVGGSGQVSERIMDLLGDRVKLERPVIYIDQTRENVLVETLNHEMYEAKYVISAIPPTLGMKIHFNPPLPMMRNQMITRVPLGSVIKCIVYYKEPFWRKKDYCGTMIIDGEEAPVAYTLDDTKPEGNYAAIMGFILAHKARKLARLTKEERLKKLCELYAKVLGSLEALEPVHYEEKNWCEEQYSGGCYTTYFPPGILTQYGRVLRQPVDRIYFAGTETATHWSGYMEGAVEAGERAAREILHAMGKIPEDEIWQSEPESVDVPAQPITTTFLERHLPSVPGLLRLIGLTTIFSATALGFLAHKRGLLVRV

[18] = target: T3, Adenosine receptor A3 (Homo sapiens, UniProt P0DMS8); experiment: Displacement of [3H]PSB-11 from human recombinant adenosine A3 receptor expressed in CHO cells by liquid scintillation counting analysis; assay type: cell-based
T3 sequence (P0DMS8 whole entry): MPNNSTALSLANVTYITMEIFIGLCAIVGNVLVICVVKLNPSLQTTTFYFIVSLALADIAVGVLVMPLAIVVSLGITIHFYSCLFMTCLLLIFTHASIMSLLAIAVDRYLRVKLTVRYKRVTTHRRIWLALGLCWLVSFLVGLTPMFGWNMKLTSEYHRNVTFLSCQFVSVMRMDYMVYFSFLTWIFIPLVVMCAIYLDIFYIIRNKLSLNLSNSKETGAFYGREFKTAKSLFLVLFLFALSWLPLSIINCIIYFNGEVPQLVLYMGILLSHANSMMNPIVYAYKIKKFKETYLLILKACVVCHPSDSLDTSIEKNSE

[19] = tested on: Mus musculus; experiment: Induction of wakefulness in C57BL/6 mouse at 1 mg/kg, po by EEG analysis; assay type: functional, organism-based
[20] = species on record: Homo sapiens; experiment: Selectivity index, ratio of Ki for human recombinant adenosine A2B receptor to Ki for human recombinant histamine H3 receptor
[21] = species on record: Homo sapiens; experiment: Selectivity index, ratio of Ki for human recombinant dopamine D3 receptor to Ki for human recombinant adenosine A2A receptor
[22] = target: Histamine H1 receptor (Homo sapiens, UniProt P35367); experiment: Displacement of [3H]pyrilamine from human recombinant histamine H1 receptor expressed in CHO cells by liquid scintillation counting analysis; assay type: cell-based
Histamine H1 receptor, sequence (P35367 whole entry): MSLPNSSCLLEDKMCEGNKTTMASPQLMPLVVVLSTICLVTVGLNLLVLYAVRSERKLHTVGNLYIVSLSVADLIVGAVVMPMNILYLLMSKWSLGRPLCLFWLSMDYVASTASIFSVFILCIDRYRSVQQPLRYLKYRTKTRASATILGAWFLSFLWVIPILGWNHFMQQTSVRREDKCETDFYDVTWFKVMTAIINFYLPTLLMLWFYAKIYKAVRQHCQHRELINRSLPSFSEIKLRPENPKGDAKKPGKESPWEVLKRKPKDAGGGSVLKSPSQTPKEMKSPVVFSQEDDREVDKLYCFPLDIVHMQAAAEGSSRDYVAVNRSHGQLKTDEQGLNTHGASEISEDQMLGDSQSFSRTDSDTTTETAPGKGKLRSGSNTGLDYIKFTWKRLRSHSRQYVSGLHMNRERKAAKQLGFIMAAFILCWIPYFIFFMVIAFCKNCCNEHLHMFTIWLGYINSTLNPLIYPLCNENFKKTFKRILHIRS

[23] = species on record: Homo sapiens; experiment: Selectivity index, ratio of Ki for human recombinant dopamine D3 receptor to Ki for human recombinant dopamine D2S receptor
[24] = species on record: Homo sapiens; experiment: Selectivity index, ratio of Ki for human recombinant dopamine D3 receptor to Ki for human recombinant adenosine A1 receptor
[25] = tested on: Mus musculus; experiment: Induction of wakefulness in C57BL/6 mouse assessed as increase in time spent awake at 2 mg/kg, po by EEG analysis; assay type: functional, organism-based
[26] = species on record: Homo sapiens; experiment: Selectivity index, ratio of Ki for human recombinant adenosine A2B receptor to Ki for human recombinant adenosine A2A receptor
[27] = target: T4, Adenosine receptor A2b (Homo sapiens, UniProt P29275); experiment: Displacement of [3H]PSB-603 from human recombinant adenosine A2B receptor expressed in CHO cells by liquid scintillation counting analysis; assay type: cell-based
T4 sequence (P29275 whole entry): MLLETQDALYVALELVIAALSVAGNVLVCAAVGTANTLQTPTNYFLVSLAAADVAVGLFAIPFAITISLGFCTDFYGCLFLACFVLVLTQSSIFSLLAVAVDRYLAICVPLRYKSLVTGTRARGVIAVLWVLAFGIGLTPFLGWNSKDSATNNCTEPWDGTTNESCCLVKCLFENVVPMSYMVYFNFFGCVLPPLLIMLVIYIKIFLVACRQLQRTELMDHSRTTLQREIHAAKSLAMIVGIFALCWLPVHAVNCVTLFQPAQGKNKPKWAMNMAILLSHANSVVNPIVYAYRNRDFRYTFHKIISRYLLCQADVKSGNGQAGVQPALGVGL

[28] = species on record: Homo sapiens; experiment: Selectivity index, ratio of Ki for human recombinant adenosine A3 receptor to Ki for human recombinant adenosine A2B receptor
[29] = species on record: Homo sapiens; experiment: Selectivity index, ratio of Ki for human recombinant dopamine D3 receptor to Ki for human recombinant histamine H3 receptor
[30] = target: D(3) dopamine receptor (Homo sapiens, UniProt P35462); experiment: Displacement of [3H]spiperone from human recombinant dopamine D3 receptor expressed in CHO cells by liquid scintillation counting analysis; assay type: cell-based
D(3) dopamine receptor, sequence (P35462 whole entry): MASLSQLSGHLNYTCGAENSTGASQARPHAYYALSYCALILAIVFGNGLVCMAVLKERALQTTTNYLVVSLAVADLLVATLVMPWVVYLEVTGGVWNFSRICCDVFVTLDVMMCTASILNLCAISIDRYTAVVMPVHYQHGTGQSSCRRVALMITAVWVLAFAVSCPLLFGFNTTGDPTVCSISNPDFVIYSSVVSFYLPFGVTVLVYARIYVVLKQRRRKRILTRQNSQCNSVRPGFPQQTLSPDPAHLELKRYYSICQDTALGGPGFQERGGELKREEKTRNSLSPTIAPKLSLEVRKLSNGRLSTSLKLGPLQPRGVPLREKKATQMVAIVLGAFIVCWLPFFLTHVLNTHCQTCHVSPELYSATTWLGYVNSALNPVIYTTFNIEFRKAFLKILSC

[31] = Displacement of [3H]SCH23390 from human recombinant dopamine D1 receptor expressed in HEK293 cells by liquid scintillation counting analysis; assay type: cell-based
[32] = target: T1, Adenosine receptor A2a; experiment: […] activity at human recombinant adenosine A2A receptor expressed in CHO cells assessed as inhibition of NECA-induced cAMP accumulation incubated for 20 mins by radioligand competition binding assay; assay type: functional, cell-based
[33] = species on record: Homo sapiens; experiment: Selectivity index, ratio of Ki for human recombinant adenosine A2A receptor to Ki for human recombinant histamine H3 receptor
[34] = species on record: Homo sapiens; experiment: Selectivity index, ratio of Ki for human recombinant adenosine A3 receptor to Ki for human recombinant adenosine A2A receptor
[35] = target: D(1B) dopamine receptor (Homo sapiens, UniProt P21918); experiment: Displacement of [3H]SCH23390 from human recombinant dopamine D5 receptor expressed in HEK293 cells by liquid scintillation counting analysis; assay type: cell-based
D(1B) dopamine receptor, sequence (P21918 whole entry): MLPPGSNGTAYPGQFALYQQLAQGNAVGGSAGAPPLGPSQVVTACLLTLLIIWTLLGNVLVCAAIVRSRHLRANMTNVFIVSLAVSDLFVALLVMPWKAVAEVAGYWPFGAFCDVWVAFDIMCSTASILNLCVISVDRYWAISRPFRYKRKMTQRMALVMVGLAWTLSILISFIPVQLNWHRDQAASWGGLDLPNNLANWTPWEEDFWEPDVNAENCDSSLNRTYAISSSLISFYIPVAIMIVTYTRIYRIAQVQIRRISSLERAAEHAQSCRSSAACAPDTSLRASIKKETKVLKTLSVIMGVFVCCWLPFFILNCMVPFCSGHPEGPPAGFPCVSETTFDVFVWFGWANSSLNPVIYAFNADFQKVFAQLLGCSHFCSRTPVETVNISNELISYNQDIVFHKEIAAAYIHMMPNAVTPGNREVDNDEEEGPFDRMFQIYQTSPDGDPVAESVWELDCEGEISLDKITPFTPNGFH

[36] = species on record: Homo sapiens; experiment: Selectivity index, ratio of Ki for human recombinant dopamine D3 receptor to Ki for human recombinant adenosine A2B receptor
[37] = species on record: Homo sapiens; experiment: Selectivity index, ratio of Ki for human recombinant dopamine D2S receptor to Ki for human recombinant adenosine A2A receptor
[38] = species on record: Homo sapiens; experiment: Selectivity index, ratio of Ki for human recombinant adenosine A2B receptor to Ki for human recombinant adenosine A1 receptor
[39] = species on record: Homo sapiens; experiment: Selectivity index, ratio of Ki for human recombinant adenosine A3 receptor to Ki for human recombinant histamine H3 receptor
[40] = target: Histamine H3 receptor (Homo sapiens, UniProt Q9Y5N1); experiment: Displacement of [3H] N-alpha methylhistamine from human recombinant histamine H3 receptor expressed in HEK293 cells measured after 90 mins; assay type: cell-based
Histamine H3 receptor, sequence (Q9Y5N1 whole entry): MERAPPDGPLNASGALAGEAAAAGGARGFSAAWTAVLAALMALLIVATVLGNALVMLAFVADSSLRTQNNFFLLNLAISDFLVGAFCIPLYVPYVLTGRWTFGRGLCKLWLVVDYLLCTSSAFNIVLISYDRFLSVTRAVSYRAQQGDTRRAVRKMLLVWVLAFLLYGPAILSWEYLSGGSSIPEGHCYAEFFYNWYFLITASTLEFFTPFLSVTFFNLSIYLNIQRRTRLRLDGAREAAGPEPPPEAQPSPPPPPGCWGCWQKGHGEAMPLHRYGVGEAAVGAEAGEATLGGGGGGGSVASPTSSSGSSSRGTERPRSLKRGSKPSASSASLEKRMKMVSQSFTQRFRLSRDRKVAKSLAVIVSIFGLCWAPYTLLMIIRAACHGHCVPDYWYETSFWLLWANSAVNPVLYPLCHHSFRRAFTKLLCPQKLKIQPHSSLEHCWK

Ratio Ki [1]: 0.22
Ki [2]: 4.01 nM
Ratio Ki [3]: 2
Ki [5]: > 10000 nM
Ratio Ki [6]: 31
Ratio Ki [7]: 0.36
Ki [8]: 11.2 nM
Ratio Ki [9]: 13
inhibition at 0.5 h, 10 µM [10]: 16%
Ki [11]: 1590 nM
Ratio Ki [12]: 11
Ratio Ki [13]: 36
Ratio Ki [16]: 142
inhibition at 0.5 h, 10 µM [17]: 50%
Ki [18]: 150 nM
Ratio Ki [20]: 0.84
Ratio Ki [21]: 91
Ki [22]: > 1000 nM
Ratio Ki [23]: 0.23
Ratio Ki [24]: 33
Ratio Ki [26]: 11
Ki [27]: 43.5 nM
Ratio Ki [28]: 3
Ratio Ki [29]: 7
Ki [30]: 364 nM
Activity [32]: inactive
Ratio Ki [33]: 0.08
Ratio Ki [34]: 37
Ki [35]: > 1000 nM
Ratio Ki [36]: 8
Ratio Ki [37]: 396
Ratio Ki [38]: 4
Ratio Ki [39]: 3
Ki [40]: 52 nM
Compound: Nc1nc(-c2ccccc2)c2c(n1)-c1cc(OCCCN3CCCCC3)ccc1C2=O
Activity [4]: Active
Activity [14]: Non-Toxic
Activity [15]: Dose-Dependent Effect
Activity [19]: inactive
Activity [25]: Active
Ki [31]: > 1000 nM
